Values quoted from earlier work as cited in patent publication US20250360058A1, “IN SITU FORMED CATIONIC ACP GEL FOR TREATMENT OF TOOTH […]” (KONINKLIJKE PHILIPS N.V., priority 2022, published 2025).

Settings: between pH 6.5-8.0

Compound | positively charged basic side chains
NCCCC[C@H](N)C(=O)O [Lysine, lysine] | 100%
N=C(N)NCCC[C@H](N)C(=O)O [Arginine, arginine] | 100%
